What is called pIC50 is the IC50 on a negative log10 scale, so that one unit is a factor of ten.

pIC50: −log10 of the molar value.

Data set [1] deals with Recombinant full length human OGA enzyme (Homo sapiens (Human), UniProt O60502). The data set is described as follows: OGA Enzyme Inhibition Biochemical Assay. The settings on record: 1 nM OGA, 100 μM 4-MUGlcNAc, pH 6.4. The method in brief: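 Full-length recombinant human OGA with fluorogenic 4-MUGlcNAc in McIlvaine buffer pH 6.4, 0.01% BSA; 90 min at room temperature, glycine pH 10 quench, fluorescence Ex 355/Em 460 nm. 10-point, 4-fold dilution from 20 μM; 4-parameter variable-slope fit.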

Data set [2] in a line: Rat Liver Microsome Stability Assay. The data set is classed as in vitro ADME. The settings on record: rat liver microsomes, 1 uM compound.
In the next data set the test system is P-gp (MDR1). As to the kind of experiment: MDR1-MDCK Efflux Ratio Assay. Format: in vitro ADME. The settings on record: dog, MDCK-MDR1, pH 7.4, MDR1-MDCK cells, 2 hr, pH 7.4; read-out: MDR1-MDCK Efflux Ratio (B-A/A-B). Summed up:
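Bidirectional (apical↔basolateral) transport across confluent MDR1-MDCK monolayers in HBSS/10 mM HEPES pH 7.4, receiver buffer with 1% BSA; 2 hr at 37° C, 5% CO2. Donor sampled at 0 and 120 min, receiver at 120 min, quantified by LC-MS/MS in triplicate. Papp, efflux ratio and percent recovery calculated.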

Data set [3] concerns the target OGA (S400 O-GLCNAC), HEK-293T cells transfected with Tau-V5 (Homo sapiens (Human), UniProt O60502). The data set is described as follows: Cellular OGA-Tau MSD Assay. The data set is classed as cell-based. The settings on record: HEK-293T cells, Tau-S400-GlcNAc MSD readout. The method in brief: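 HEK-293T cells transfected with OGA and Tau-V5 plasmids were treated overnight at 37° C with a 10-point, 3-fold titration from 1 uM. Lysates went onto V5-antibody MSD plates to capture Tau, probed with a Tau O-GlcNAc antibody and read by electrochemiluminescence; IC50 from a 4-parameter fit.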

Recombinant full length human OGA enzyme, sequence (O60502 whole entry): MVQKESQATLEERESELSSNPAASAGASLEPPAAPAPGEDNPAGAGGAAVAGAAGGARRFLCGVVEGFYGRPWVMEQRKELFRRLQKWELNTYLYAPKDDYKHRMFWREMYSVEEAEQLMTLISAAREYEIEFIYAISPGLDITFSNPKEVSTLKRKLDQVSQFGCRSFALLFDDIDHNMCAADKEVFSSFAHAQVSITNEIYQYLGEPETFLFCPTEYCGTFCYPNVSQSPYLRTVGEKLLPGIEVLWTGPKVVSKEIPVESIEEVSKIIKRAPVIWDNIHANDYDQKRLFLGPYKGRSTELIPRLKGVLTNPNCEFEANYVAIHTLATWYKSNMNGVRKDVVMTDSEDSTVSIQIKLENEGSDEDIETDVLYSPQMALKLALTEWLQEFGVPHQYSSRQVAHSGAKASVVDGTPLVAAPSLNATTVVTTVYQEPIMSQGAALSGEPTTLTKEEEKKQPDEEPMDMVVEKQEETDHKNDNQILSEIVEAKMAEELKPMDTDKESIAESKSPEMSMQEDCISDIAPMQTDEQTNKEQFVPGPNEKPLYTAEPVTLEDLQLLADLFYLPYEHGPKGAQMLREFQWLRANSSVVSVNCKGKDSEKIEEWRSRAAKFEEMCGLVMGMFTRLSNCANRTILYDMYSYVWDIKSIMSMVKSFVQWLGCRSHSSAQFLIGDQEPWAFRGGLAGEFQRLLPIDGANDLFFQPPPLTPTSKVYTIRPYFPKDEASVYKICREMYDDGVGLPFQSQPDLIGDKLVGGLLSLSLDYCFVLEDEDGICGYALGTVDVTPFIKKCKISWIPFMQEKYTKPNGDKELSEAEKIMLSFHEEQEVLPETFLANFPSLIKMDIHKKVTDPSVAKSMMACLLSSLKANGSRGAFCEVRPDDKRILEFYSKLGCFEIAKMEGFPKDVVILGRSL
OGA (S400 O-GLCNAC), HEK-293T cells transfected with Tau-V5, sequence (O60502 whole entry): as above

As for `CC(=O)Nc1ncc(CN2C[C@H](Oc3cc(C)nc(C)c3)C[C@H]2C)s1` [Example 1-61, N-(5-(((2R,4R)-4-((2,6-dimethylpyridin-4-yl)oxy)-2-methylpyrrolidin-1-yl)methyl)thiazol-2-yl)acetamide], the pIC50 was 8.15 in data set [1] and 7.41 in data set [3]. Besides, in data set [2], the “RLM % Qh (%)” value stood at 31%. Also, the efflux ratio at 2 h in the data set with P-gp (MDR1) was found to be 45.2.

With `CC(=O)Nc1ncc(CN2C[C@@H](Oc3cc(C)nc(C)c3)C[C@@H]2C)s1` [Example 1-62, N-(5-(((2S,4S)-4-((2,6-dimethylpyridin-4-yl)oxy)-2-methylpyrrolidin-1-yl)methyl)thiazol-2-yl)acetamide], the figures for the pIC50 in data set [1] and in data set [3] were 7.59 and 7.05, respectively. The “RLM % Qh (%)” value in data set [2] is 32%. The efflux ratio at 2 h in the data set on P-gp (MDR1) was 65.

As for `CC(=O)Nc1ncc(CN2C[C@@H](Oc3cc(C)nc(C)c3)C[C@H]2C)s1` [Example 1-63, N-(5-(((2R,4S)-4-((2,6-dimethylpyridin-4-yl)oxy)-2-methylpyrrolidin-1-yl)methyl)thiazol-2-yl)acetamide], the pIC50 in data set [1] was 6.38; in data set [3] it was less than 6.00. Further, the “RLM % Qh (%)” value in data set [2] is recorded as 16%. For the same molecule, the efflux ratio at 2 h in the data set on P-gp (MDR1) came to 45.3.

For `CC(=O)Nc1ncc(CN2CCC[C@H](Oc3cc(C)nc(C)c3)C2)s1` [Example 1-64, (S)—N-(5-((3-((2,6-dimethylpyridin-4-yl)oxy)piperidin-1-yl)methyl)thiazol-2-yl)acetamide], the figures for the pIC50 in data set [1] and in data set [3] were 7.64 and 7.51, respectively. Besides, the “RLM % Qh (%)” value in data set [2] stood at 67%. Moreover, the efflux ratio at 2 h in the data set with P-gp (MDR1) came out at 35.3.

Turning to `CC(=O)Nc1ncc(CN2CCC[C@@H](Oc3cc(C)nc(C)c3)C2)s1` [Example 1-65, (R)—N-(5-((3-((2,6-dimethylpyridin-4-yl)oxy)piperidin-1-yl)methyl)thiazol-2-yl)acetamide], the pIC50 was 8.68 in data set [1] and 7.74 in data set [3]. For the same molecule, the “RLM % Qh (%)” value in data set [2] was 85%. Also, the efflux ratio at 2 h with P-gp (MDR1) worked out at 17.

For the molecule `COc1ccc(O[C@@H]2C[C@H](C)N(Cc3cnc(NC(C)=O)s3)C2)nn1` [Example 1-68, N-(5-(((2S,4R)-4-((6-methoxypyridazin-3-yl)oxy)-2-methylpyrrolidin-1-yl)methyl)thiazol-2-yl)acetamide], the values for the pIC50 in data set [1] and in data set [3] were more than 9.00 and 8.70, respectively. In addition, the “RLM % Qh (%)” value in data set [2] is 34%. Further, the efflux ratio at 2 h with P-gp (MDR1) stood at 28.6.

Turning to `CC(=O)Nc1ncc(CN2C[C@H](Oc3cnc(C)cn3)C[C@@H]2C)s1` [Example 1-69, N-(5-(((2S,4R)-2-methyl-4-((5-methylpyrazin-2-yl)oxy)pyrrolidin-1-yl)methyl)thiazol-2-yl)acetamide], the pIC50 is more than 9.00 in data set [1] and 8.52 in data set [3]. Also, the “RLM % Qh (%)” value in data set [2] turned out to be 59%. The efflux ratio at 2 h in the data set with P-gp (MDR1) was determined as 6.1.

On to `COc1ncnc(O[C@@H]2C[C@H](C)N(Cc3cnc(NC(C)=O)s3)C2)c1C` [Example 1-71, N-(5-(((2S,4R)-4-((6-methoxy-5-methylpyrimidin-4-yl)oxy)-2-methylpyrrolidin-1-yl)methyl)thiazol-2-yl)acetamide], for which the pIC50 is 8.77 in data set [1] and 7.80 in data set [3]. In addition, the “RLM % Qh (%)” value in data set [2] amounted to 76%. In addition, the efflux ratio at 2 h with P-gp (MDR1) amounted to 3.5.

Take `CC(=O)Nc1ncc(CN2C[C@H](Oc3cc(C)ncc3C)C[C@@H]2C)s1` [Example 1-72, N-(5-(((2S,4R)-4-((2,5-dimethylpyridin-4-yl)oxy)-2-methylpyrrolidin-1-yl)methyl)thiazol-2-yl)acetamide]: the figures for the pIC50 in data set [1] and in data set [3] were 8.14 and 8.10, respectively. Further, in data set [2], the “RLM % Qh (%)” value is on record as 64%. Moreover, the efflux ratio at 2 h in the data set with P-gp (MDR1) was 55.1.

`COc1cnc(O[C@@H]2C[C@H](C)N(Cc3cnc(NC(C)=O)s3)C2)cn1` [Example 1-73, N-(5-(((2S,4R)-4-((5-methoxypyrazin-2-yl)oxy)-2-methylpyrrolidin-1-yl)methyl)thiazol-2-yl)acetamide]: the results for the pIC50 in data set [1] and in data set [3] were more than 9.00 and 8.52, respectively. For the same molecule, the “RLM % Qh (%)” value in data set [2] is listed as 57%. For the same molecule, the efflux ratio at 2 h in the data set with P-gp (MDR1) stood at 2.9.

In the case of `COc1nc(C)cc(O[C@@H]2C[C@H](C)N(Cc3cnc(NC(C)=O)s3)C2)n1` [Example 1-75, N-(5-(((2S,4R)-4-((2-methoxy-6-methylpyrimidin-4-yl)oxy)-2-methylpyrrolidin-1-yl)methyl)thiazol-2-yl)acetamide], the results for the pIC50 in data set [1] and in data set [3] were more than 9.00 and 8.70, respectively. For the same molecule, the “RLM % Qh (%)” value in data set [2] amounted to 58%. Also, the efflux ratio at 2 h in the data set on P-gp (MDR1) turned out to be 6.7.

Turning to `CC(=O)Nc1ncc(CN2C[C@H](Oc3cc(C(C)=O)ncn3)C[C@@H]2C)s1` [Example 1-76], the pIC50 is 8.59 in data set [1] and 7.60 in data set [3]. Also, in data set [2], the “RLM % Qh (%)” value worked out at 65%. Moreover, the efflux ratio at 2 h in the data set on P-gp (MDR1) is 6.

As for `CC(=O)Nc1ncc(CN2C[C@H](Oc3cc(F)ncn3)C[C@@H]2C)s1` [Example 1-78, N-(5-(((2S,4R)-4-((6-fluoropyrimidin-4-yl)oxy)-2-methylpyrrolidin-1-yl)methyl)thiazol-2-yl)acetamide], the pIC50 is 8.62 in data set [1] and 8.22 in data set [3]. The “RLM % Qh (%)” value in data set [2] is 47%. The efflux ratio at 2 h in the data set on P-gp (MDR1) was found to be 4.1.

In the case of `CC(=O)Nc1ncc(CN2C[C@H](Oc3ncc(OC(F)F)cn3)C[C@@H]2C)s1` [Example 1-80, N-(5-(((2S,4R)-4-((5-(difluoromethoxy)pyrimidin-2-yl)oxy)-2-methylpyrrolidin-1-yl)methyl)thiazol-2-yl)acetamide], the figures for the pIC50 in data set [1] and in data set [3] were 8.92 and more than 9.00, respectively. Besides, in data set [2], the “RLM % Qh (%)” value was found to be 65%. For the same molecule, the efflux ratio at 2 h with P-gp (MDR1) amounted to 18.1.

Consider `CC(=O)Nc1ncc(CN2C[C@H](Oc3ccnc(C)c3)C[C@@H]2C)s1` [Example 1-82, N-(5-(((2S,4R)-2-methyl-4-((2-methylpyridin-4-yl)oxy)pyrrolidin-1-yl)methyl)thiazol-2-yl)acetamide], for which the negative-log IC50 (pIC50) in data set [1] was more than 9.00; in data set [3], 8.70. In addition, the “RLM % Qh (%)” value in data set [2] is recorded as 38%. Also, the efflux ratio at 2 h in the data set with P-gp (MDR1) turned out to be 16.7.

Consider `CC(=O)Nc1ncc(CN2C[C@H](Oc3ccc(F)nn3)C[C@@H]2C)s1` [Example 1-83, N-(5-(((2S,4R)-4-((6-fluoropyridazin-3-yl)oxy)-2-methylpyrrolidin-1-yl)methyl)thiazol-2-yl)acetamide], for which the results for the negative-log IC50 (pIC50) in data set [1] and in data set [3] were more than 9.00 and 9.00, respectively. Also, the “RLM % Qh (%)” value in data set [2] is 16%. In the data set on P-gp (MDR1), the efflux ratio at 2 h is 38.6.

On to `CC(=O)Nc1nc(F)c(CN2C[C@H](Oc3ccc(F)nc3)C[C@@H]2C)s1` [Example 1-85, N-(4-fluoro-5-(((2S,4R)-4-((6-fluoropyridin-3-yl)oxy)-2-methylpyrrolidin-1-yl)methyl)thiazol-2-yl)acetamide], for which the negative-log IC50 (pIC50) in data set [1] was more than 9.00; in data set [3] it was 8.70. Also, the “RLM % Qh (%)” value in data set [2] is 60%. The efflux ratio at 2 h in the data set on P-gp (MDR1) amounted to 3.8.

Turning to `CC(=O)Nc1ncc(CN2C[C@H](Oc3ncc(F)cn3)C[C@@H]2C)s1` [Example 1-86, N-(5-(((2S,4R)-4-((5-fluoropyrimidin-2-yl)oxy)-2-methylpyrrolidin-1-yl)methyl)thiazol-2-yl)acetamide], the negative-log IC50 (pIC50) in data set [1] and in data set [3] was more than 9.00 throughout. The “RLM % Qh (%)” value in data set [2] stood at 26%. For the same molecule, the efflux ratio at 2 h in the data set with P-gp (MDR1) is 11.2.

In the case of `CC(=O)Nc1ncc(CN2C[C@H](Oc3cc(C)c(F)cn3)C[C@@H]2C)s1` [Example 1-87, N-(5-(((2S,4R)-4-((5-fluoro-4-methylpyridin-2-yl)oxy)-2-methylpyrrolidin-1-yl)methyl)thiazol-2-yl)acetamide], the pIC50 in data set [1] and in data set [3] was more than 9.00 throughout. Moreover, the “RLM % Qh (%)” value in data set [2] is reported as 81%. Moreover, in the data set on P-gp (MDR1), the efflux ratio at 2 h turned out to be 1.8.

Turning to `COc1cncc(O[C@@H]2C[C@H](C)N(Cc3sc(NC(C)=O)nc3F)C2)n1` [Example 1-88, N-(4-fluoro-5-(((2S,4R)-4-((6-methoxypyrazin-2-yl)oxy)-2-methylpyrrolidin-1-yl)methyl)thiazol-2-yl)acetamide], the pIC50 in data set [1] was more than 9.00; in data set [3], 9.00. In addition, the “RLM % Qh (%)” value in data set [2] is reported as 98%. Besides, in the data set on P-gp (MDR1), the efflux ratio at 2 h was determined as 4.7.

As to `COc1cnc(O[C@@H]2C[C@H](C)N(Cc3sc(NC(C)=O)nc3F)C2)nc1` [Example 1-89, N-(4-fluoro-5-(((2S,4R)-4-((5-methoxypyrimidin-2-yl)oxy)-2-methylpyrrolidin-1-yl)methyl)thiazol-2-yl)acetamide], the pIC50 in data set [1] and in data set [3] was more than 9.00 each time. Also, in data set [2], the “RLM % Qh (%)” value was determined as 66%. The efflux ratio at 2 h in the data set on P-gp (MDR1) amounted to 19.7.

Consider `CC(=O)Nc1nc(F)c(CN2C[C@H](Oc3ccc(Cl)cn3)C[C@@H]2C)s1` [Example 1-90, N-(5-(((2S,4R)-4-((5-chloropyridin-2-yl)oxy)-2-methylpyrrolidin-1-yl)methyl)-4-fluorothiazol-2-yl)acetamide], for which the pIC50 in data set [1] and in data set [3] was more than 9.00 throughout. In addition, in data set [2], the “RLM % Qh (%)” value came to 88%. Further, the efflux ratio at 2 h with P-gp (MDR1) amounted to 1.1.
